Measured values from US7829589B2, “Sulfonamide compounds and uses thereof” (Elixir Pharmaceuticals, Inc., priority 2005, dated 2010).

Biological target: GHS-R (Homo sapiens, UniProt Q92847)
Assay: GHS-R antagonist activity (Ki) in a cell based assay
Outline: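 Transfected COS-7 cells were labelled 24 h with [^3H]-myo-inositol and preincubated 30 min at 37 °C in HEPES buffer pH 7.4 with 10 mM LiCl, optionally with 1 U/ml adenosine deaminase. Compound was applied for 45 min at 37 °C. [^3H]-inositol phosphates were extracted with perchloric acid and isolated by anion-exchange resin.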

GHS-R, sequence (Q92847 whole entry, species assumed): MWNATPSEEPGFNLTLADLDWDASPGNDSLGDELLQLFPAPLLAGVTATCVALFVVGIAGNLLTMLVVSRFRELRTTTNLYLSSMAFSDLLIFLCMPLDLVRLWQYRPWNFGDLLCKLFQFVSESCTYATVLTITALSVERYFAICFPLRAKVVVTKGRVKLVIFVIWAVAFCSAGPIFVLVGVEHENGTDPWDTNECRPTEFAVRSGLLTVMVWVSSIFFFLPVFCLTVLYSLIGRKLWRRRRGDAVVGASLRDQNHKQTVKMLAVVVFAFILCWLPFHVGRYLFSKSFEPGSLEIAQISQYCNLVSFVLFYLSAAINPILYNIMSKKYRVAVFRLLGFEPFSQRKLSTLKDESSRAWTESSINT

Structure (SMILES) | Ki [µM]
CCN(CC)CCS(=O)(=O)N[C@H](CCc1ccccc1)c1nc(-c2ccc(Br)cc2C)no1 [Compound 85, 2-Diethylamino-ethanesulfonic acid {(R)-1-[3-(4-bromo-2-methyl-phenyl)-[1,2,4]oxadiazol-5-yl]-3-phenyl-propyl}-amide] | ≥ 1
CCN(CC)CCS(=O)(=O)N[C@H](CCc1ccccc1)c1nc(-c2ccc(C)cc2)no1 [Compound 86, 2-Diethylamino-ethanesulfonic acid [(R)-3-phenyl-1-(3-p-tolyl-[1,2,4]oxadiazol-5-yl)-propyl]-amide] | 0.1 to 0.5
CCN(CC)CCS(=O)(=O)N[C@H](CCc1ccccc1)c1nc(Cc2ccccc2C)no1 [Compound 87, 2-Diethylamino-ethanesulfonic acid {(R)-1-[3-(2-methyl-benzyl)-[1,2,4]oxadiazol-5-yl]-3-phenyl-propyl}-amide] | 0.1 to 0.5
CCN(CC)CCS(=O)(=O)N[C@H](CCc1ccccc1)c1nc(-c2ccc(OC)cc2)no1 [Compound 88, 2-Diethylamino-ethanesulfonic acid {(R)-1-[3-(4-methoxy-phenyl)-[1,2,4]oxadiazol-5-yl]-3-phenyl-propyl}-amide] | ≥ 1
CCN(CC)CCS(=O)(=O)N[C@H](CCc1ccccc1)c1nc(-c2ccc(F)cc2)no1 [Compound 89, 2-Diethylamino-ethanesulfonic acid {(R)-1-[3-(4-fluoro-phenyl)-[1,2,4]oxadiazol-5-yl]-3-phenyl-propyl}-amide] | < 0.1
CCN(CC)CCS(=O)(=O)N[C@H](CCc1ccccc1)c1nc(Cc2c(Cl)cccc2Cl)no1 [Compound 90, 2-Diethylamino-ethanesulfonic acid {(R)-1-[3-(2,6-dichloro-benzyl)-[1,2,4]oxadiazol-5-yl]-3-phenyl-propyl}-amide] | < 0.1
CCN(CC)CCS(=O)(=O)N[C@H](CCc1ccccc1)c1nc(Cc2ccccc2F)no1 [Compound 91, 2-Diethylamino-ethanesulfonic acid {(R)-1-[3-(2-fluoro-benzyl)-[1,2,4]oxadiazol-5-yl]-3-phenyl-propyl}-amide] | 0.1 to 0.5
CCN(CC)CCS(=O)(=O)N[C@H](CCc1ccccc1)c1nc(Cc2cccc(Br)c2)no1 [Compound 92, 2-Diethylamino-ethanesulfonic acid {(R)-1-[3-(3-bromo-benzyl)-[1,2,4]oxadiazol-5-yl]-3-phenyl-propyl}-amide] | < 0.1
CCN(CC)CCS(=O)(=O)N[C@H](CCc1ccccc1)c1nc(Cc2ccccc2Br)no1 [Compound 93, 2-Diethylamino-ethanesulfonic acid {(R)-1-[3-(2-bromo-benzyl)-[1,2,4]oxadiazol-5-yl]-3-phenyl-propyl}-amide] | < 0.1
CCN(CC)CCCS(=O)(=O)N[C@@H](Cc1ccccc1)c1nc(-c2ccc(OC)cc2)n[nH]1 [Compound 95, 3-Diethylamino-propane-1-sulfonic acid {(S)-1-[5-(4-methoxy-phenyl)-2H-[1,2,4]triazol-3-yl]-2-phenyl-ethyl}-amide] | < 0.1
CCN(CC)CCCS(=O)(=O)N[C@H](CCc1ccccc1)c1nc(-c2ccc(F)cc2F)n[nH]1 [Compound 96, 3-Diethylamino-propane-1-sulfonic acid {(R)-1-[5-(2,4-difluoro-phenyl)-2H-[1,2,4]triazol-3-yl]-3-phenyl-propyl}-amide] | < 0.1
CCN(CC)CCCS(=O)(=O)N[C@H](CCc1ccccc1)c1nc(CCc2ccccc2)no1 [Compound 97, 3-Diethylamino-propane-1-sulfonic acid [(R)-1-(3-phenethyl-[1,2,4]oxadiazol-5-yl)-3-phenyl-propyl]-amide] | < 0.1
CCN(CC)CCCS(=O)(=O)N[C@H](CCC(N)=O)c1nc(Cc2ccc(Br)cc2)no1 [Compound 98, (R)-4-[3-(4-Bromo-benzyl)-[1,2,4]oxadiazol-5-yl]-4-(3-diethylamino-propane-1-sulfonylamino)-butyramide] | 0.1 to 0.5
CCN(CC)CCCS(=O)(=O)N[C@H](CCc1ccccc1)c1nc(COc2ccccc2)no1 [Compound 99, 3-Diethylamino-propane-1-sulfonic acid [(R)-1-(3-phenoxymethyl-[1,2,4]oxadiazol-5-yl)-3-phenyl-propyl]-amide] | < 0.1
CCN(CC)CCCS(=O)(=O)N[C@H](CCc1ccccc1)c1nc(Cc2ccccc2OC)no1 [Compound 100, 3-Diethylamino-propane-1-sulfonic acid {(R)-1-[3-(2-methoxy-benzyl)-[1,2,4]oxadiazol-5-yl]-3-phenyl-propyl}-amide] | < 0.1
CCN(CC)CCCS(=O)(=O)N[C@H](CCc1ccccc1)c1nc(CCc2ccccc2Cl)no1 [Compound 101, 3-Diethylamino-propane-1-sulfonic acid ((R)-1-{3-[2-(2-chloro-phenyl)-ethyl]-[1,2,4]oxadiazol-5-yl}-3-phenyl-propyl)-amide] | 0.1 to 0.5
CCN(CC)CCCS(=O)(=O)N[C@H](CC(N)=O)c1nc(Cc2ccc(Br)cc2)no1 [Compound 102, (R)-3-[3-(4-Bromo-benzyl)-[1,2,4]oxadiazol-5-yl]-3-(3-diethylamino-propane-1-sulfonylamino)-propionamide] | 0.1 to 0.5

Structure (SMILES) | Ki [µM]
CCN(CC)CCCS(=O)(=O)N[C@H](CCc1ccccc1)c1nc(-c2ccccc2C)n[nH]1 [Compound 104, 3-Diethylamino-propane-1-sulfonic acid [(R)-3-phenyl-1-(5-o-tolyl-2H-[1,2,4]triazol-3-yl)-propyl]-amide] | < 0.1
CCN(CC)CCCS(=O)(=O)N[C@H](CCc1ccccc1)c1nc(-c2ccc(F)cc2)n[nH]1 [Compound 105, 3-Diethylamino-propane-1-sulfonic acid {(R)-1-[5-(4-fluoro-phenyl)-2H-[1,2,4]triazol-3-yl]-3-phenyl-propyl}-amide] | < 0.1
CCN(CC)CCCS(=O)(=O)N[C@H](CCc1ccccc1)c1nc(-c2ccc(OC(F)(F)F)cc2)n[nH]1 [Compound 106, 3-Diethylamino-propane-1-sulfonic acid {(R)-3-phenyl-1-[5-(4-trifluoromethoxy-phenyl)-2H-[1,2,4]triazol-3-yl]-propyl}-amide] | < 0.1
CCN(CC)CCCS(=O)(=O)N[C@H](CCc1ccccc1)c1nc(Cc2ccc(OC)cc2)n[nH]1 [Compound 107, 3-Diethylamino-propane-1-sulfonic acid {(R)-1-[5-(4-methoxy-benzyl)-2H-[1,2,4]triazol-3-yl]-3-phenyl-propyl}-amide] | 0.1 to 0.5
CCN(CC)CCCS(=O)(=O)N[C@H](CCc1ccccc1)c1nc(-c2ccc(C)cc2)n[nH]1 [Compound 108, 3-Diethylamino-propane-1-sulfonic acid [(R)-3-phenyl-1-(5-p-tolyl-2H-[1,2,4]triazol-3-yl)-propyl]-amide] | 0.1 to 0.5
CCN(CC)CCCS(=O)(=O)N[C@H](CCc1ccccc1)c1nc(Cc2cccc(OC)c2)no1 [Compound 109, 3-Diethylamino-propane-1-sulfonic acid {(R)-1-[3-(3-methoxy-benzyl)-[1,2,4]oxadiazol-5-yl]-3-phenyl-propyl}-amide] | < 0.1
CCN(CC)CCCS(=O)(=O)N[C@H](CCc1ccccc1)c1nc(-c2ccc(N(C)C)cc2)n[nH]1 [Compound 110, 3-Diethylamino-propane-1-sulfonic acid {(R)-1-[5-(4-dimethylamino-phenyl)-2H-[1,2,4]triazol-3-yl]-3-phenyl-propyl}-amide] | ≥ 1
CCN(CC)CCCS(=O)(=O)N[C@H](CCc1ccccc1)c1nc(Cc2ccc(OC)cc2)no1 [Compound 111, 3-Diethylamino-propane-1-sulfonic acid {(R)-1-[3-(4-methoxy-benzyl)-[1,2,4]oxadiazol-5-yl]-3-phenyl-propyl}-amide] | < 0.1
CCN(CC)CCCS(=O)(=O)N[C@H](CCc1ccccc1)c1nc(Cc2ccccn2)no1 [Compound 112, 3-Diethylamino-propane-1-sulfonic acid [(R)-3-phenyl-1-(3-pyridin-2-ylmethyl-[1,2,4]oxadiazol-5-yl)-propyl]-amide] | 0.1 to 0.5
CCN(CC)CCCS(=O)(=O)N[C@H](CCc1ccccc1)c1nc(CCc2ccc(Br)cc2)no1 [Compound 113, 3-Diethylamino-propane-1-sulfonic acid ((R)-1-{3-[2-(4-bromo-phenyl)-ethyl]-[1,2,4]oxadiazol-5-yl}-3-phenyl-propyl)-amide] | < 0.1
CCN(CC)CCCS(=O)(=O)N[C@H](CCc1ccccc1)c1nc(Cc2ccccc2Cl)no1 [Compound 114, 3-Diethylamino-propane-1-sulfonic acid {(R)-1-[3-(2-chloro-benzyl)-[1,2,4]oxadiazol-5-yl]-3-phenyl-propy}-amide] | < 0.1
CCN(CC)CCCS(=O)(=O)N[C@H](CCc1ccccc1)c1nc(-c2ccc(OC)cc2F)n[nH]1 [Compound 115, 3-Diethylamino-propane-1-sulfonic acid {(R)-1-[5-(2-fluoro-4-methoxy-phenyl)-2H-[1,2,4]triazol-3-yl]-3-phenyl-propyl}-amide] | < 0.1
CCN(CC)CCCS(=O)(=O)N[C@H](CCc1ccccc1)c1nc(Cc2ccccc2)no1 [Compound 116, 3-Diethylamino-propane-1-sulfonic acid [(R)-1-(3-benzyl-[1,2,4]oxadiazol-5-yl)-3-phenyl-propyl]-amide] | 0.1 to 0.5
CCN(CC)CCCS(=O)(=O)N[C@H](CCc1ccccc1)c1nc(Cc2ccc(C(F)(F)F)cc2)no1 [Compound 117, 3-Diethylamino-propane-1-sulfonic acid {(R)-3-phenyl-1-[3-(4-trifluoromethyl-benzyl)-[1,2,4]oxadiazol-5-yl]-propyl}-amide] | < 0.1
CCN(CC)CCCS(=O)(=O)N[C@H](CCc1ccccc1)c1nc(-c2cccc3[nH]ccc23)n[nH]1 [Compound 118, 3-Diethylamino-propane-1-sulfonic acid {(R)-1-[5-(1H-indol-4-yl)-2H-[1,2,4]triazol-3-yl]-3-phenyl-propyl}-amide] | < 0.1
CCN(CC)CCCS(=O)(=O)N[C@H](Cc1ccccc1)c1nc(-c2ccc(OC)cc2)n[nH]1 [Compound 119, 3-Diethylamino-propane-1-sulfonic acid {(R)-1-[5-(4-methoxy-phenyl)-2H-[1,2,4]triazol-3-yl]-2-phenyl-ethyl}-amide] | 0.1 to 0.5
